The target in one assay is T1, human CD38 (Homo sapiens, UniProt P28907).
T1 construct: purchased Bio-Techne GmbH AVI2404
T1 sequence (P28907 1-300): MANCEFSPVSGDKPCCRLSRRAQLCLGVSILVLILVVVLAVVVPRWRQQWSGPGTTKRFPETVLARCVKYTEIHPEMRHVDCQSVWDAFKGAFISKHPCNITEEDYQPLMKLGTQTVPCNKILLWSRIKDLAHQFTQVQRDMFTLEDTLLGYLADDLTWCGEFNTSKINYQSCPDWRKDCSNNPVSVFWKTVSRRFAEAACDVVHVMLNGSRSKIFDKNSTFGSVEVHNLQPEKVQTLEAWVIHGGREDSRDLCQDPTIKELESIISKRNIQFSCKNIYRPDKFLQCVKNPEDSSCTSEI
The assay can be described thus: NAD+ cyclase activity assay with human recombinant CD38 protein (ε-NAD fluorescence). In kind it is biochemical. To be noted: 1.9 nM human CD38, substrate ε-NAD, 30 min preincubation, fluorescence 300/410 nm. An outline of the steps:
(§1)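 Twelve-point threefold compound dilutions were given 30 min at room temperature with 0.6 nM mouse or 1.9 nM human CD38 before […] ε-NAD was added (pH 7.5 HEPES/sucrose/Tween buffer). The rate came from the linear-phase slope of ex 300/em 410 nm fluorescence against vehicle and no-CD38 controls.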

A further assay has as its target T2, mouse CD38 (Mus musculus, UniProt P56528).
T2 construct: purchased Bio-Techne GmbH 4947-AC
T2 sequence (P56528 1-304): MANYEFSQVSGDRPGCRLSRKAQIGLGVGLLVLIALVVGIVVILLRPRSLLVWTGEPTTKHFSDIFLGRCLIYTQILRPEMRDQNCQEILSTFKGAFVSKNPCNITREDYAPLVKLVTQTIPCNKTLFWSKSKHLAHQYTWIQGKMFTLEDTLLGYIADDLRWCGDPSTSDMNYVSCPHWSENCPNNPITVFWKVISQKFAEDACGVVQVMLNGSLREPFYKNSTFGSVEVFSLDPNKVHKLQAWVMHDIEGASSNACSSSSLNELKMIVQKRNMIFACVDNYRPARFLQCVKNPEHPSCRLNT
Kind of assay: NAD+ cyclase activity assay with mouse recombinant CD38 protein (ε-NAD fluorescence). The note with it: 0.6 nM mouse CD38, substrate ε-NAD, 30 min preincubation, fluorescence 300/410 nm. It is filed as biochemical. An outline of the steps:
as §1

SMILES strings stand for the structures.

In general, IC50 refers to the midpoint of a concentration-inhibition curve.

On to `O=C(N[C@H]1CC[C@H](NC2CCC2(F)F)CC1)c1ccc2c(c1)-c1cncn1CCO2` (some centres unmarked) [Compound 82A, N-((1r,4r)-4-((2,2-Difluorocyclobutyl)amino)cyclohexyl)-5,6-dihydrobenzo[f]imidazo[1,5-d][1,4]oxazepine-10-carboxamide], for which the IC50 was less than 30 nM on human CD38 and 1 to 10 nM on mouse CD38.
For `CC(C)(F)CN[C@H]1CC[C@H](NC(=O)c2ccc3c(c2)-c2cncn2CCO3)CC1` [Compound 83A, N-((1r,4r)-4-((2-Fluoro-2-methylpropyl)amino)cyclohexyl)-5,6-dihydrobenzo[f]imidazo[1,5-d][1,4]oxazepine-10-carboxamide], in that order: 100 to 1000 nM and 10 to 100 nM.
For `O=C(NC1CC(F)(F)C1)c1ccc2c(c1)-c1cncn1CCO2` [Compound 84A, N-(3,3-Difluorocyclobutyl)-5,6-dihydrobenzo[f]imidazo[1,5-d][1,4]oxazepine-10-carboxamide], in that order: less than 30 nM and 1 to 10 nM.
On to `CS(=O)(=O)CCCO[C@H]1CC[C@H](NC(=O)c2ccc3c(c2)-c2cncn2CCO3)CC1` [Compound 85A, N-((1r,4r)-4-(3-(Methylsulfonyl)propoxy)cyclohexyl)-5,6-dihydrobenzo[f]imidazo[1,5-d][1,4]oxazepine-10-carboxamide], for which the half-maximal inhibitory concentration (IC50) was less than 30 nM at human CD38 and 1 to 10 nM at mouse CD38.
Regarding `CS(=O)(=O)CCCO[C@H]1CC[C@@H](NC(=O)c2ccc3c(c2)-c2cncn2CCO3)CC1` [Compound 86A, N-((1s,4s)-4-(3-(Methylsulfonyl)propoxy)cyclohexyl)-5,6-dihydrobenzo[f]imidazo[1,5-d][1,4]oxazepine-10-carboxamide], the results for the IC50 at human CD38 and on mouse CD38 were 100 to 1000 nM and more than 100 nM, respectively.
The corresponding values for `C[C@H](N[C@H]1CC[C@H](NC(=O)c2ccc3c(c2)-c2cncn2CCO3)CC1)C(F)(F)F` [Compound 87A, N-((1r,4r)-4-(((S)-1,1,1-Trifluoropropan-2-yl)amino)cyclohexyl)-5,6-dihydrobenzo[f]imidazo[1,5-d][1,4]oxazepine-10-carboxamide] are less than 30 nM and less than 1 nM.
For `CC(C)(N[C@H]1CC[C@H](NC(=O)c2ccc3c(c2)-c2cncn2CCO3)CC1)C(F)(F)F` [Compound 88A, N-((1r,4r)-4-((1,1,1-Trifluoro-2-methylpropan-2-yl)amino)cyclohexyl)-5,6-dihydrobenzo[f]imidazo[1,5-d][1,4]oxazepine-10-carboxamide], in that order: less than 30 nM and less than 1 nM.
`O=C(N[C@H]1CC[C@@H](OCCC(F)(F)F)CC1)c1ccc2c(c1)-c1cncn1CCO2` [Compound 89A, N-((1s,4s)-4-(3,3,3-Trifluoropropoxy)cyclohexyl)-5,6-dihydrobenzo[f]imidazo[1,5-d][1,4]oxazepine-10-carboxamide]: the IC50 at human CD38 was 100 to 1000 nM; on mouse CD38 it was more than 100 nM.
In the case of `O=C(N[C@H]1CC[C@H](OCCC(F)(F)F)CC1)c1ccc2c(c1)-c1cncn1CCO2` [Compound 90A, N-((1r,4r)-4-(3,3,3-Trifluoropropoxy)cyclohexyl)-5,6-dihydrobenzo[f]imidazo[1,5-d][1,4]oxazepine-10-carboxamide], the IC50 at human CD38 is less than 30 nM; on mouse CD38, less than 1 nM.
Consider `COCCO[C@H]1CC[C@H](NC(=O)c2cc(F)c3c(c2F)-c2cncn2CCO3)CC1` [Compound 91A, 8,11-Difluoro-N-((1r,4r)-4-(2-methoxyethoxy)cyclohexyl)-5,6-dihydrobenzo[f]imidazo[1,5-d][1,4]oxazepine-10-carboxamide], for which the half-inhibitory concentration (IC50) at human CD38 lay in the range of 30 to 100 nM; at mouse CD38, 1 to 10 nM.
In the case of `O=C(N[C@@H]1CCC(F)(F)C1)c1ccc2c(c1)-c1cncn1CCO2` [Compound 92A, (R)—N-(3,3-Difluorocyclopentyl)-5,6-dihydrobenzo[f]imidazo[1,5-d][1,4]oxazepine-10-carboxamide], the IC50 at human CD38 was less than 30 nM; at mouse CD38, 1 to 10 nM.
For `O=C(N[C@H]1CCC(F)(F)C1)c1ccc2c(c1)-c1cncn1CCO2` [Compound 93A, (S)—N-(3,3-Difluorocyclopentyl)-5,6-dihydrobenzo[f]imidazo[1,5-d][1,4]oxazepine-10-carboxamide], in that order: less than 30 nM and 1 to 10 nM.
For `COCCO[C@H]1CC[C@H](NC(=O)c2cc(Cl)c3c(c2)-c2cncn2CCO3)CC1` [Compound 94A, 8-Chloro-N-((1r,4r)-4-(2-methoxyethoxy)cyclohexyl)-5,6-dihydrobenzo[f]imidazo[1,5-d][1,4]oxazepine-10-carboxamide], in that order: less than 30 nM and less than 1 nM.
The corresponding values for `COCCO[C@H]1CC[C@H](NC(=O)c2cc3c(c(F)c2F)OCCn2cncc2-3)CC1` [Compound 95A, 8,9-Difluoro-N-((1r,4r)-4-(2-methoxyethoxy)cyclohexyl)-5,6-dihydrobenzo[f]imidazo[1,5-d][1,4]oxazepine-10-carboxamide] are less than 30 nM and 1 to 10 nM.
Turning to `O=C(NC1CCCC(F)(F)C1)c1ccc2c(c1)-c1cncn1CCO2` (centres unmarked) [Compound 96A, N-(3,3-Difluorocyclohexyl)-5,6-dihydrobenzo[f]imidazo[1,5-d][1,4]oxazepine-10-carboxamide], the 50% inhibitory concentration (IC50) was less than 30 nM at human CD38 and 1 to 10 nM on mouse CD38.
Turning to `O=C(Nc1cnc2c(c1)OCCO2)c1cc(F)c2c(c1)-c1cncn1CCO2` [Compound 97A, N-(2,3-Dihydro-[1,4]dioxino[2,3-b]pyridin-7-yl)-8-fluoro-5,6-dihydrobenzo[f]imidazo[1,5-d][1,4]oxazepine-10-carboxamide], the results for the IC50 at human CD38 and on mouse CD38 were less than 30 nM and less than 1 nM, respectively.
`CN1CCOc2cc(NC(=O)c3ccc4c(c3)-c3cncn3CCO4)cnc21` [Compound 98A, N-(4-Methyl-3,4-dihydro-2H-pyrido[3,2-b][1,4]oxazin-7-yl)-5,6-dihydrobenzo[f]imidazo[1,5-d][1,4]oxazepine-10-carboxamide]: the results for the IC50 on human CD38 and on mouse CD38 were less than 30 nM and 1 to 10 nM, respectively.
For the molecule `O=C(Nc1cnc(N2CC(F)(F)C2)nc1)c1ccc2c(c1)-c1cncn1CCO2` [Compound 99A, N-(2-(3,3-Difluoroazetidin-1-yl)pyrimidin-5-yl)-5,6-dihydrobenzo[f]imidazo[1,5-d][1,4]oxazepine-10-carboxamide], the IC50 was less than 30 nM on human CD38 and 10 to 100 nM on mouse CD38.
Turning to `O=C(Nc1cnc(NCC(F)(F)F)nc1)c1ccc2c(c1)-c1cncn1CCO2` [Compound 100A, N-(2-((2,2,2-Trifluoroethyl)amino)pyrimidin-5-yl)-5,6-dihydrobenzo[f]imidazo[1,5-d][1,4]oxazepine-10-carboxamide], the IC50 was less than 30 nM on human CD38 and 1 to 10 nM at mouse CD38.
Take `CN1CCOc2ncc(NC(=O)c3ccc4c(c3)-c3cncn3CCO4)cc21` [Compound 101A, N-(1-Methyl-2,3-dihydro-1H-pyrido[2,3-b][1,4]oxazin-7-yl)-5,6-dihydrobenzo[f]imidazo[1,5-d][1,4]oxazepine-10-carboxamide]: the IC50 was less than 30 nM at human CD38 and less than 1 nM on mouse CD38.
Consider `O=C(Nc1cnc(OCCCF)nc1)c1ccc2c(c1)-c1cncn1CCO2` [Compound 102A, N-(2-(3-Fluoropropoxy)pyrimidin-5-yl)-5,6-dihydrobenzo[f]imidazo[1,5-d][1,4]oxazepine-10-carboxamide], for which the IC50 on human CD38 is less than 30 nM; at mouse CD38, 1 to 10 nM.
As to `O=C(Nc1cnc(OCCC(F)F)nc1)c1ccc2c(c1)-c1cncn1CCO2` [Compound 103A, N-(2-(3,3-Difluoropropoxy)pyrimidin-5-yl)-5,6-dihydrobenzo[f]imidazo[1,5-d][1,4]oxazepine-10-carboxamide], the IC50 at human CD38 is less than 30 nM; at mouse CD38, 1 to 10 nM.
For `O=C(Nc1cnc(OCCC(F)(F)F)nc1)c1ccc2c(c1)-c1cncn1CCO2` [Compound 104A, N-(2-(3,3,3-Trifluoropropoxy)pyrimidin-5-yl)-5,6-dihydrobenzo[f]imidazo[1,5-d][1,4]oxazepine-10-carboxamide], in that order: less than 30 nM and 1 to 10 nM.
For `O=C(N[C@H]1CC[C@H](CN2CC(F)(F)C2)CC1)c1ccc2c(c1)-c1cncn1CCO2` [Compound 105A, N-((1r,4r)-4-((3,3-Difluoroazetidin-1-yl)methyl)cyclohexyl)-5,6-dihydrobenzo[f]imidazo[1,5-d][1,4]oxazepine-10-carboxamide], in that order: 30 to 100 nM and 1 to 10 nM.
For `CS(=O)(=O)CCN[C@H]1CC[C@H](NC(=O)c2ccc3c(c2)-c2cncn2CCO3)CC1` [Compound 106A, N-((1r,4r)-4-((2-(Methylsulfonyl)ethyl)amino)cyclohexyl)-5,6-dihydrobenzo[f]imidazo[1,5-d][1,4]oxazepine-10-carboxamide], in that order: 30 to 100 nM and 1 to 10 nM.

The values above are taken from US20260138990A1, “TRICYCLIC FUSED IMIDAZOLE COMPOUNDS AS CD38 MODULATORS AND USES THEREOF” (AEOVIAN PHARMACEUTICALS, INC., priority 2023, published 2026).
